From patent publication US11420958B2, “Aryl and heteroaryl substituted indole compounds” (BRISTOL-MYERS SQUIBB COMPANY, priority 2017, dated 2022) come the findings set out here.

Holding throughout (format): cell-based
In one assay the target is human TLR9 (Homo sapiens (Human), UniProt Q9NR96). As to the kind of experiment: TLR9 inhibition reporter assay (HEK-Blue, SEAP). The conditions noted are these: HEK-Blue cells overexpressing human TLR9, ODN2006 5 nM stimulation. In a few lines: (§1)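 After 30 min room-temperature pre-incubation with compound (0.05 nM–50 μM), reporter HEK-Blue lines were activated by ODN2006 5 nM for TLR9, R848 15.9 μM for TLR8 or gardiquimod 7.5 μM for TLR7. SEAP detected after 22 h, 37 °C; inhibition scaled between agonist+DMSO wells and known-inhibitor control.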
Background: In a reporter assay the amount or activity of a reporter protein is the signal.

Another assay addresses human TLR7 (Homo sapiens (Human), UniProt Q9NYK1). Put plainly: TLR7 inhibition reporter assay (HEK-Blue, SEAP). Particulars: HEK-Blue cells overexpressing human TLR7, gardiquimod 7.5 μM stimulation. In a few lines:
as §1

The next assay deals with human TLR8 (Homo sapiens (Human), UniProt Q9NR97). As to the kind of experiment: TLR8 inhibition reporter assay (HEK-Blue, SEAP). Particulars: HEK-Blue cells overexpressing human TLR8, R848 15.9 μM stimulation. In short, it runs like this:
as §1

human TLR9, sequence (Q9NR96 26-1032): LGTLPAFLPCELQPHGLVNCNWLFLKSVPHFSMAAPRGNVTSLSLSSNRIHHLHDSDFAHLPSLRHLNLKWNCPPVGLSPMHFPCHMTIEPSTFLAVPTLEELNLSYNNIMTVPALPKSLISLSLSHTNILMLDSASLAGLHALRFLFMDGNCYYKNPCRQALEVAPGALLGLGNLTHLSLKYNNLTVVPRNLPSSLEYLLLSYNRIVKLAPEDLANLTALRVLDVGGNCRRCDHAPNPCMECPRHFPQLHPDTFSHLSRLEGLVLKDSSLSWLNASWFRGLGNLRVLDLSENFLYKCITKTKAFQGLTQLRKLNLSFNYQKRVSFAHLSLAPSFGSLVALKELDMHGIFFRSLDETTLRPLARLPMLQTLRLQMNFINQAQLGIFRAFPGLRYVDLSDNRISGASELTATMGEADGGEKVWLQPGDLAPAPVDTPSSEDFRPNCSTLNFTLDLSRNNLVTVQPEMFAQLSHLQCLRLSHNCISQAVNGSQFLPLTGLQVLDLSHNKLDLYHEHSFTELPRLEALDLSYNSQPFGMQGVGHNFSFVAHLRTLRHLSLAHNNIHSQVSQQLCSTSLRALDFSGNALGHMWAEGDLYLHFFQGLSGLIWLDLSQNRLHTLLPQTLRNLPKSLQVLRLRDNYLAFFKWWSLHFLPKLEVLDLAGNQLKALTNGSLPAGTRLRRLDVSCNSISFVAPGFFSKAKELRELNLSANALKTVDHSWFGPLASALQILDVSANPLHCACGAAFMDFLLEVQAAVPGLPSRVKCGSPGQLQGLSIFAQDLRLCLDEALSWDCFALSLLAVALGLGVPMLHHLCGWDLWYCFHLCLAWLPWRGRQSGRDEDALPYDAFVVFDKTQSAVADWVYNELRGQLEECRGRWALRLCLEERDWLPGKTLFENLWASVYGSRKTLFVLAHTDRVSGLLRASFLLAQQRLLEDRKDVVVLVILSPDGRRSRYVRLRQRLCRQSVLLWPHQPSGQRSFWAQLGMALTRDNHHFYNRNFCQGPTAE
human TLR7, sequence (Q9NYK1 27-1049): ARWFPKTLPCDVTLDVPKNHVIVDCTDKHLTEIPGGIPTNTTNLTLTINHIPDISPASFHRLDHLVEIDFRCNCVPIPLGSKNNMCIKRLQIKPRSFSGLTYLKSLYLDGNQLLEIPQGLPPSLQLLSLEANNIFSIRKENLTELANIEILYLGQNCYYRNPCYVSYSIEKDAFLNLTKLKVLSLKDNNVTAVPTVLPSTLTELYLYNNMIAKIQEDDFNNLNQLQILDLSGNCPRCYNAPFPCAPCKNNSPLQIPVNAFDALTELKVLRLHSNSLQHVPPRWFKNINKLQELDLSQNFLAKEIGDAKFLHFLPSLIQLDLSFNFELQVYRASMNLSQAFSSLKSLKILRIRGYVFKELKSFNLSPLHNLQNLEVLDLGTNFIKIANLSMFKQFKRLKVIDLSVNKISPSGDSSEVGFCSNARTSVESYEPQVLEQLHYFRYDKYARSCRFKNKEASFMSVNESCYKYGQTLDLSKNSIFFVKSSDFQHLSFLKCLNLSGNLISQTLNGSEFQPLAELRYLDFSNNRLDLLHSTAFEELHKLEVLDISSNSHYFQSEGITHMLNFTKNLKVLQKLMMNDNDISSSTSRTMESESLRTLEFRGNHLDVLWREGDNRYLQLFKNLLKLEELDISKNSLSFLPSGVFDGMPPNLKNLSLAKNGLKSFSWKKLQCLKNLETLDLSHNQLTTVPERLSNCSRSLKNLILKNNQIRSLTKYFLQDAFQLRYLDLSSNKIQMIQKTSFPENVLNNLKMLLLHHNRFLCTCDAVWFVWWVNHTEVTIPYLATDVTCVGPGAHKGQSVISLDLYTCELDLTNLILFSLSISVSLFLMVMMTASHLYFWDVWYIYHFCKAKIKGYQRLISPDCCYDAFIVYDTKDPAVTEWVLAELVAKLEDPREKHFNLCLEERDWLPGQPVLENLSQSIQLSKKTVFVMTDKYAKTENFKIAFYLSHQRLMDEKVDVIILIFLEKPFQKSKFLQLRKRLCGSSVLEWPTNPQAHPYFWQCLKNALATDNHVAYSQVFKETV
human TLR8, sequence (Q9NR97 27-1041): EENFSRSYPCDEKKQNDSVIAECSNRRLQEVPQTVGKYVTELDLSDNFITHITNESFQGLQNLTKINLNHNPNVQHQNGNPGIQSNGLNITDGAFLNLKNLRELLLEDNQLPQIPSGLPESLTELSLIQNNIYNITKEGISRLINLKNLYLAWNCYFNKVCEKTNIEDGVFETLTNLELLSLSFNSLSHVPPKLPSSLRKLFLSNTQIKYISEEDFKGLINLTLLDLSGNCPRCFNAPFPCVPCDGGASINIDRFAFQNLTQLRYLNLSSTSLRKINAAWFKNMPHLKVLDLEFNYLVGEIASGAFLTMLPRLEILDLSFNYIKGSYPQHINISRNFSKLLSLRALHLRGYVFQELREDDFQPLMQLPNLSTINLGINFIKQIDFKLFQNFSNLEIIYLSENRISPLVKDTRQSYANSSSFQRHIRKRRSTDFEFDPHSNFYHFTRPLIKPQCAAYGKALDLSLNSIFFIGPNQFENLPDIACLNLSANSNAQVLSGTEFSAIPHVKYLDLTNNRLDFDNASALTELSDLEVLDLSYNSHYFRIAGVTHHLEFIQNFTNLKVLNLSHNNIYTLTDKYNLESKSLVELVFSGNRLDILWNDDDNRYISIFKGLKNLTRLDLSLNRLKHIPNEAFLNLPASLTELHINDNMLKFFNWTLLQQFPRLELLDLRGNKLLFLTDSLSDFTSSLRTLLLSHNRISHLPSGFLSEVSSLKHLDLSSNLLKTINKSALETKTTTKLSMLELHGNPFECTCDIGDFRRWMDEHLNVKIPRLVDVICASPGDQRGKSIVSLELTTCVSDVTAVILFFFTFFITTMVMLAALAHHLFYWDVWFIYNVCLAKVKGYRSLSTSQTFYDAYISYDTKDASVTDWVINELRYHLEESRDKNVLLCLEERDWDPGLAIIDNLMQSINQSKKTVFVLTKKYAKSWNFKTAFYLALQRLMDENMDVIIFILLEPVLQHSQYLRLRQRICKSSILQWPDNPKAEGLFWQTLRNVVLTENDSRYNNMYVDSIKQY

As usually defined, the IC50 is the concentration at which inhibition is half-maximal. A lower IC50 goes with greater potency in that assay. For `Cc1cc(-c2[nH]c3ccc(-c4ccc(N5CCN(C)CC5)nc4)cc3c2C(C)C)ccn1` [Example 253, 3-isopropyl-5-(6-(4-methylpiperazin-1-yl)pyridin-3-yl)-2-(2-methylpyridin-4-yl)-1H-indole], the figures for the IC50 on human TLR9, against human TLR7 and against human TLR8 were 304 nM, 45 nM and 22 nM, respectively.
In the case of `Cc1cc(-c2[nH]c3ccc(-c4cnc(C5CCNCC5)[nH]4)cc3c2C(C)C)ccn1` [Example 254, 3-isopropyl-2-(2-methylpyridin-4-yl)-5-(2-(piperidin-4-yl)-1H-imidazol-5-yl)-1H-indole], the values for the IC50 at human TLR9, on human TLR7 and against human TLR8 were 1210 nM, 88 nM and 77 nM, respectively.
Consider `Cc1cc(-c2[nH]c3ccc(-c4ccc(N5CCNCC5)nc4)cc3c2C(C)C)ccn1` [Example 255, 3-isopropyl-2-(2-methylpyridin-4-yl)-5-(6-(piperazin-1-yl)pyridin-3-yl)-1H-indole], for which the IC50 was 340 nM against human TLR9, 12 nM against human TLR7 and 2.9 nM against human TLR8.
In the case of `CC(=O)Nc1ccc(-c2ccc3[nH]c(-c4ccnc(C)c4)c(C(C)C)c3c2)cn1` [Example 256, N-(5-(3-isopropyl-2-(2-methylpyridin-4-yl)-1H-indol-5-yl)pyridin-2-yl)acetamide], the IC50 against human TLR9 was above 50000 nM; against human TLR7, 99 nM; at human TLR8 it was 15 nM.
On to `Cc1cc(-c2[nH]c3ccc(-c4ccc(N5CCNCC5)nc4)cc3c2C(C)C)cc(C)n1` [Example 257, 2-(2,6-dimethylpyridin-4-yl)-3-isopropyl-5-(6-(piperazin-1-yl)pyridin-3-yl)-1H-indole], for which the IC50 against human TLR9 is 151 nM; against human TLR7, 1.7 nM; on human TLR8, 1.7 nM.
Take `Cc1cc(-c2[nH]c3ccc(-c4ccnc(-c5cn[nH]c5)c4)cc3c2C(C)C)ccn1` [Example 258, 5-(2-(1H-pyrazol-4-yl)pyridin-4-yl)-3-isopropyl-2-(2-methylpyridin-4-yl)-1H-indole]: the IC50 was determined as 12000 nM on human TLR9, 224 nM against human TLR7 and 4 nM against human TLR8.
The like results for `Cc1cc(-c2[nH]c3ccc(-c4nnc(CC(C)N)o4)cc3c2C(C)C)ccn1` (stereo not drawn) [Example 259, 1-(5-(3-isopropyl-2-(2-methylpyridin-4-yl)-1H-indol-5-yl)-1,3,4-oxadiazol-2-yl)propan-2-amine] were, in that order, 876 nM, 26 nM and 5.5 nM.
In the case of `Cc1cc(-c2[nH]c3ccc(-c4nnc(CCN5CCCCC5)o4)cc3c2C(C)C)ccn1` [Example 260, 2-(3-isopropyl-2-(2-methylpyridin-4-yl)-1H-indol-5-yl)-5-(2-(piperidin-1-yl)ethyl)-1,3,4-oxadiazole], the IC50 at human TLR9 came out at 1230 nM; at human TLR7, 133 nM; against human TLR8, 2.2 nM.
The like results for `Cc1cc(-c2[nH]c3ccc(-c4nnc([C@@H]5CCCN5)o4)cc3c2C(C)C)ccn1` [Example 261, (S)-2-(3-isopropyl-2-(2-methylpyridin-4-yl)-1H-indol-5-yl)-5-(pyrrolidin-2-yl)-1,3,4-oxadiazole] were, in that order, 6280 nM, 162 nM and 4.5 nM.
The like results for `Cc1cc(-c2[nH]c3ccc(-c4nnc(CCc5cccnc5)o4)cc3c2C(C)C)ccn1` [Example 262, 2-(3-isopropyl-2-(2-methylpyridin-4-yl)-1H-indol-5-yl)-5-(2-(pyridin-3-yl)ethyl)-1,3,4-oxadiazole] were, in that order, 5890 nM, 286 nM and 60 nM.
On to `Cc1cc(-c2[nH]c3ccc(-c4nnc(C(C)CN)o4)cc3c2C(C)C)ccn1` (stereo not drawn) [Example 263, 2-(5-(3-isopropyl-2-(2-methylpyridin-4-yl)-1H-indol-5-yl)-1,3,4-oxadiazol-2-yl)propan-1-amine], for which the IC50 against human TLR9 worked out at 869 nM; against human TLR7 it was 50 nM; on human TLR8 it was 3.2 nM.
With `Cc1cc(-c2[nH]c3ccc(-c4nnc(CCCCN)o4)cc3c2C(C)C)ccn1` [Example 264, 4-(5-(3-isopropyl-2-(2-methylpyridin-4-yl)-1H-indol-5-yl)-1,3,4-oxadiazol-2-yl)butan-1-amine], the results for the IC50 at human TLR9, at human TLR7 and on human TLR8 were 7270 nM, 251 nM and 36 nM, respectively.
For the molecule `Cc1cc(-c2[nH]c3ccc(-c4nnc(CC(C)(C)N)o4)cc3c2C(C)C)ccn1` [Example 265, 1-(5-(3-isopropyl-2-(2-methylpyridin-4-yl)-1H-indol-5-yl)-1,3,4-oxadiazol-2-yl)-2-methylpropan-2-amine], the IC50 turned out to be 561 nM against human TLR9, 21 nM at human TLR7 and 3.3 nM against human TLR8.
For `Cc1cc(-c2[nH]c3ccc(-c4nnc([C@@H]5CCCC[C@@H]5N)o4)cc3c2C(C)C)ccn1` [Example 266, (1S,2R)-2-(5-(3-isopropyl-2-(2-methylpyridin-4-yl)-1H-indol-5-yl)-1,3,4-oxadiazol-2-yl)cyclohexan-1-amine], the results for the IC50 at human TLR9, against human TLR7 and against human TLR8 were 781 nM, 38 nM and 0.5 nM, respectively.
With `Cc1cc(-c2[nH]c3ccc(-c4nnc([C@@H]5CCC[C@@H]5N)o4)cc3c2C(C)C)ccn1` [Example 267, (1S,2R)-2-(5-(3-isopropyl-2-(2-methylpyridin-4-yl)-1H-indol-5-yl)-1,3,4-oxadiazol-2-yl)cyclopentan-1-amine], the figures for the IC50 against human TLR9, against human TLR7 and on human TLR8 were 752 nM, 30 nM and 2.4 nM, respectively.
`Cc1cc(-c2[nH]c3ccc(-c4nnc([C@@H](N)C5CC5)o4)cc3c2C(C)C)ccn1` [Example 268, (S)-cyclopropyl(5-(3-isopropyl-2-(2-methylpyridin-4-yl)-1H-indol-5-yl)-1,3,4-oxadiazol-2-yl)methanamine]: the IC50 against human TLR9 came to 33800 nM; against human TLR7 it was 214 nM; against human TLR8, 2.8 nM.
On to `Cc1cc(-c2[nH]c3ccc(-c4ccnc(N5CCN(C)CC5)c4)cc3c2C(C)C)ccn1` [Example 269, 3-isopropyl-5-(2-(4-methylpiperazin-1-yl)pyridin-4-yl)-2-(2-methylpyridin-4-yl)-1H-indole], for which the IC50 on human TLR9 stood at 824 nM; at human TLR7, 74 nM; against human TLR8, 5.5 nM.
In the case of `Cc1cc(-c2[nH]c3ccc(-c4nnc(CCN(C)C)o4)cc3c2C(C)C)cc(C)n1` [Example 270, 2-(5-(2-(2,6-dimethylpyridin-4-yl)-3-isopropyl-1H-indol-5-yl)-1,3,4-oxadiazol-2-yl)-N,N-dimethylethan-1-amine], the IC50 on human TLR9 stood at 298 nM; against human TLR7, 10 nM; at human TLR8 it was 1 nM.
As to `Cc1cc(-c2[nH]c3ccc(-c4nnc(CCCN(C)C)o4)cc3c2C(C)C)cc(C)n1` [Example 271, 3-(5-(2-(2,6-dimethylpyridin-4-yl)-3-isopropyl-1H-indol-5-yl)-1,3,4-oxadiazol-2-yl)-N,N-dimethylpropan-1-amine], the figures for the IC50 on human TLR9, against human TLR7 and on human TLR8 were 281 nM, 6.3 nM and 1.9 nM, respectively.
For `Cc1cc(-c2[nH]c3ccc(-c4ccnc(C5CCN(C(C)C)CC5)c4)cc3c2C(C)C)ccn1` [Example 272, 3-isopropyl-5-(2-(1-isopropylpiperidin-4-yl)pyridin-4-yl)-2-(2-methylpyridin-4-yl)-1H-indole], the IC50 on human TLR9 came out at 380 nM; on human TLR7, 24 nM; at human TLR8, 9 nM.
`Cc1cc(-c2[nH]c3ccc(-c4ccnc(N5CCNCC5)c4)cc3c2C(C)C)ccn1` [Example 273, 3-isopropyl-2-(2-methylpyridin-4-yl)-5-(2-(piperazin-1-yl)pyridin-4-yl)-1H-indole]: the IC50 came out at 790 nM on human TLR9, 45 nM against human TLR7 and 5.8 nM against human TLR8.
As to `Cc1cc(-c2[nH]c3ccc(-c4nc(C(=O)NCCN5CCCCC5)co4)cc3c2C(C)C)cc(C)n1` [Example 274, 2-(2-(2,6-dimethylpyridin-4-yl)-3-isopropyl-1H-indol-5-yl)-N-(2-(piperidin-1-yl)ethyl)oxazole-4-carboxamide], the IC50 at human TLR9 was 602 nM; on human TLR7, 22 nM; at human TLR8 it was 6.2 nM.
The like results for `Cc1cc(-c2[nH]c3ccc(-c4nc(C(=O)NCCCN5CCCCC5)co4)cc3c2C(C)C)cc(C)n1` [Example 275, 2-(2-(2,6-dimethylpyridin-4-yl)-3-isopropyl-1H-indol-5-yl)-N-(3-(piperidin-1-yl)propyl)oxazole-4-carboxamide] were, in that order, 601 nM, 18 nM and 12 nM.
Take `Cc1cc(-c2[nH]c3ccc(-c4nc(C(=O)NCC5CCNC5)co4)cc3c2C(C)C)cc(C)n1` (stereo not drawn) [Example 276, 2-(2-(2,6-dimethylpyridin-4-yl)-3-isopropyl-1H-indol-5-yl)-N-(pyrrolidin-3-ylmethyl)oxazole-4-carboxamide]: the IC50 against human TLR9 was 1080 nM; on human TLR7, 49 nM; against human TLR8 it was 26 nM.
Take `Cc1cc(-c2[nH]c3ccc(-c4nc(C(=O)NCC(C)CN)co4)cc3c2C(C)C)cc(C)n1` (stereo not drawn) [Example 277, N-(3-amino-2-methylpropyl)-2-(2-(2,6-dimethylpyridin-4-yl)-3-isopropyl-1H-indol-5-yl)oxazole-4-carboxamide]: the IC50 is 1080 nM on human TLR9, 21 nM against human TLR7 and 13 nM on human TLR8.
As to `Cc1cc(-c2[nH]c3ccc(-c4nc(C(=O)NCCCN)co4)cc3c2C(C)C)cc(C)n1` [Example 278, N-(3-aminopropyl)-2-(2-(2,6-dimethylpyridin-4-yl)-3-isopropyl-1H-indol-5-yl)oxazole-4-carboxamide], the IC50 against human TLR9 worked out at 488 nM; at human TLR7, 33 nM; at human TLR8, 37 nM.
